Where two headings read alike, the source gives them in different places.
Columns and labels:
Format in all cases: in vivo
[1] = tested on: boll weevil (Anthonomus grandis); assay: Action on boll weevil, eggs on insect diet in 96-well microtiter plates; details: 120 h, read-out: mortality in comparison with untreated controls
Experimental: Example B3: Action on Boll Weevil (Anthonomus grandis)
For evaluating control of boll weevil (Anthonomus grandis) the test unit consisted of 96-well-microtiter plates containing an insect diet and 5-10 A. grandis eggs.
(§1) The compounds were formulated using a solution containing 75% v/v water and 25% v/v DMSO. Different concentrations of formulated compounds were sprayed onto the insect diet at 5 μl, using a custom built micro atomizer, at two replications.
After application, microtiter plates were incubated at about 25±1° C. and about 75±5% relative humidity for 5 days. Egg and larval mortality was then visually assessed.

[2] = tested on: green peach aphid (Myzus persicae) (mixed life stages); assay: Action on green peach aphid, liquid artificial diet under artificial membrane; details: 72 h, read-out: mortality in comparison with untreated controls
From the text: Example B8: Action on Green Peach Aphid (Myzus persicae) (Mixed Life Stages)
For evaluating control of green peach aphid (Myzus persicae) through systemic means the test unit consisted of 96-well-microtiter plates containing liquid artificial diet under an artificial membrane.
The compounds were formulated using a solution containing 75% v/v water and 25% v/v DMSO. Different concentrations of formulated compounds were pipetted into the aphid diet, using a custom built pipetter, at two replications.
After application, 5-8 adult aphids were placed on the artificial membrane inside the microtiter plate wells. The aphids were then allowed to suck on the treated aphid diet and incubated at about 23±1° C. and about 50±5% relative humidity for 3 days. Aphid mortality and fecundity was then visually assessed.

[3] = tested on: yellow fever mosquito (Aedes aegypti); assay: whole plant or invertebrate; details: 48 h, larval mortality visually assessed after 2 days, read-out: mortality in comparison with untreated controls
Experimental: Example B1: Action on Yellow Fever Mosquito (Aedes aegypti)
For evaluating control of yellow fever mosquito (Aedes aegypti) the test unit consisted of 96-well-microtiter plates containing 200 μl of tap water per well and 5-15 freshly hatched A. aegypti larvae.
The active compounds were formulated using a solution containing 75% (v/v) water and 25% (v/v) DMSO. Different concentrations of formulated compounds or mixtures were sprayed onto the insect diet at 2.5 μl, using a custom built micro atomizer, at two replications.
After application, microtiter plates were incubated at 28+1° C., 80+5% RH for 2 days. Larval mortality was then visually assessed.

[4] = tested on: tobacco budworm (Heliothis virescens); assay: Action on tobacco budworm, eggs on insect diet in 96-well microtiter plates; details: 120 h, egg and larval mortality visually assessed after 5 days, read-out: mortality in comparison with untreated controls
Experimental: Example B6: Action on Tobacco Budworm (Heliothis virescens)
For evaluating control of tobacco budworm (Heliothis virescens) the test unit consisted of 96-well-microtiter plates containing an insect diet and 15-25 H. virescens eggs.
The compounds were formulated using a solution containing 75% v/v water and 25% v/v DMSO. Different concentrations of formulated compounds were sprayed onto the insect diet at 10 μl, using a custom built micro atomizer, at two replications.
After application, microtiter plates were incubated at about 28±1° C. and about 80±5% relative humidity for 5 days. Egg and larval mortality was then visually assessed.

[5] = tested on: Southern Armyworm (Spodoptera eridania), 2nd instar larvae; assay: Action on southern armyworm 2nd instar larvae, sprayed lima bean plants; details: 96 h, 4 days after treatment, read-out: mortality in comparison with untreated controls
Experimental: Example B10: Action on Southern Armyworm (Spodoptera eridania), 2nd Instar Larvae
The active compounds were formulated by a Tecan liquid handler in 100% cyclohexanone as a 10,000 ppm solution supplied in tubes. The 10,000 ppm solution was serially diluted in 100% cyclohexanone to make interim solutions. These served as stock solutions for which final dilutions were made by the Tecan in 50% acetone:50% water (v/v) into 10 or 20 ml glass vials. A nonionic surfactant (Kinetic®) was included in the solution at a volume of 0.01% (v/v). The vials were then inserted into an automated electrostatic sprayer equipped with an atomizing nozzle for application to plants/insects.
Lima bean plants (variety Sieva) were grown 2 plants to a pot and selected for treatment at the 1st true leaf stage. Test solutions were sprayed onto the foliage by an automated electrostatic plant sprayer equipped with an atomizing spray nozzle. The plants were dried in the sprayer fume hood and then removed from the sprayer. Each pot was placed into perforated plastic bags with a zip closure. About 10 to 11 armyworm larvae were placed into the bag and the bags zipped closed. Test plants were maintained in a growth room at about 25° C. and about 20-40% relative humidity for 4 days, avoiding direct exposure to fluorescent light (24 hour photoperiod) to prevent trapping of heat inside the bags. Mortality and reduced feeding were assessed 4 days after treatment, compared to untreated control plants.

[6] = tested on: Mediterranean fruitfly (Ceratitis capitata); assay: Action on Mediterranean fruitfly, eggs on insect diet in microtiter plates; details: 120 h, egg and larval mortality visually assessed after 5 days, read-out: mortality in comparison with untreated controls
Experimental: Example B5: Action on Mediterranean Fruitfly (Ceratitis capitata)
For evaluating control of Mediterranean fruitfly (Ceratitis capitata) the test unit consisted of microtiter plates containing an insect diet and 50-80 C. capitata eggs.
as §1
After application, microtiter plates were incubated at about […] and about 80+5% relative humidity for 5 days. Egg and larval mortality was then visually assessed.

[7] = tested on: Diamond Back Moth (Plutella xylostella); assay: Action on diamond back moth, dipped cabbage leaves; details: 3rd instar larvae, 72 hours after treatment, read-out: mortality in comparison with untreated controls
Experimental: Example B9: Action on Diamond Back Moth (Plutella xylostella)
The active compound is dissolved at the desired concentration in a mixture of 1:1 (vol:vol) distilled water:acetone. Surfactant (Kinetic® HV) is added at a rate of 0.01% (vol/vol). The test solution is prepared at the day of use.
Leaves of cabbage were dipped in test solution and air-dried. Treated leaves were placed in petri dishes lined with moist filter paper and inoculated with ten 3rd instar larvae. Mortality was recorded 72 hours after treatment. Feeding damages were also recorded using a scale of 0-100%.

[8] = tested on: Orchid Thrips (Dichromothrips corbetti); assay: Action on orchid thrips, floral-immersion technique; details: adult thrips, 72 hours after treatment, read-out: mortality in comparison with untreated controls
Experimental: Example B2: Action on Orchid Thrips (Dichromothrips Corbetti)
Dichromothrips corbettiadults used for bioassay were obtained from a colony maintained continuously under laboratory conditions. For testing purposes, the test compound is diluted in a 1:1 mixture of acetone:water (vol:vol), plus Kinetic® HV at a rate of 0.01% v/v.
Thrips potency of each compound was evaluated by using a floral-immersion technique. All petals of individual, intact orchid flowers were dipped into treatment solution and allowed to dry in Petri dishes. Treated petals were placed into individual re-sealable plastic along with about 20 adult thrips. All test arenas were held under continuous light and a temperature of about 28° C. for duration of the assay. After 3 days, the numbers of live thrips were counted on each petal. The percent mortality was recorded 72 hours after treatment.

[9] = tested on: Silverleaf Whitefly (Bemisia argentifolii) (Adults); assay: Action on silverleaf whitefly adults, sprayed cotton plants; details: 72 h, 3 days after treatment, read-out: mortality in comparison with untreated controls
Experimental: Example B4: Action on Silverleaf Whitefly (Bemisia argentifolii) (Adults)
The active compounds were formulated by a Tecan liquid handler in 100% cyclohexanone as a 10,000 ppm solution supplied in tubes. The 10,000 ppm solution was serially diluted in 100% cyclohexanone to make interim solutions. These served as stock solutions for which final dilutions were made by the Tecan in 50% acetone:50% water (v/v) into 5 or 10 ml glass vials. A nonionic surfactant (Kinetic®) was included in the solution at a volume of 0.01% (v/v). The vials were then inserted into an automated electrostatic sprayer equipped with an atomizing nozzle for application to plants/insects.
Cotton plants at the cotyledon stage (one plant per pot) were sprayed by an automated electrostatic plant sprayer equipped with an atomizing spray nozzle. The plants were dried in the sprayer fume hood and then removed from the sprayer. Each pot was placed into a plastic cup and about 10 to 12 whitefly adults (approximately 3-5 days old) were introduced. The insects were collected using an aspirator and a nontoxic Tygon® tubing connected to a barrier pipette tip. The tip, containing the collected insects, was then gently inserted into the soil containing the treated plant, allowing insects to crawl out of the tip to reach the foliage for feeding. Cups were covered with a reusable screened lid. Test plants were maintained in a growth room at about 25° C. and about 20-40% relative humidity for 3 days, avoiding direct exposure to fluorescent light (24 hour photoperiod) to prevent trapping of heat inside the cup. Mortality was assessed 3 days after treatment, compared to untreated control plants.

[10] = tested on: vetch aphid (Megoura viciae); assay: Action on vetch aphid, broad bean leaf disks in 24-well microtiter plates; details: foliar, 120 h, adult aphids on treated leaf disks, 5 days, read-out: mortality in comparison with untreated controls
Experimental: Example B7: Action on Vetch Aphid (Megoura viciae)
For evaluating control of vetch aphid (Megoura viciae) through contact or systemic means the test unit consisted of 24-well-microtiter plates containing broad bean leaf disks.
The compounds were formulated using a solution containing 75% v/v water and 25% v/v DMSO. Different concentrations of formulated compounds were sprayed onto the leaf disks at 2.5 μl, using a custom built micro atomizer, at two replications.
After application, the leaf disks were air-dried and 5-8 adult aphids placed on the leaf disks inside the microtiter plate wells. The aphids were then allowed to suck on the treated leaf disks and incubated at about 23±1° C. and about 50±5% relative humidity for 5 days. Aphid mortality and fecundity was then visually assessed.

[11] = 800 ppm, egg and larval mortality visually assessed after 5 days
[12] = 800 ppm, adult aphids on treated aphid diet, 3 days

CC(OC(=O)Nc1ccc2c(ccc3c2ncn3-c2ccc(OC(F)(F)F)cc2)n1)c1ccc(Cl)cn1 (centres unmarked) [Compound C-11, 1-(5-chloro-2-pyridyl)ethyl N-[3-[4-(trifluoromethoxy)phenyl]imidazo[4,5-f]quinolin-7-yl]carbamate]
≥ 75%: mortality at 800 ppm [1] | mortality at 800 ppm [2] | mortality at 800 ppm [3]

Cc1ccc(C(C)C)c(NC(=S)N/N=C/c2ccc3c(ccc4c3ncn4-c3ccc(OC(F)(F)F)cc3)n2)c1 [Compound C-5, 1-(2-isopropyl-5-methyl-phenyl)-3-[(E)-[3-[4-(trifluoromethoxy)phenyl]imidazo[4,5-f]quinolin-7-yl]methyleneamino]thiourea]
≥ 75%: mortality at 800 ppm [4] | mortality at 800 ppm [1, 11] | mortality at 800 ppm [2, 12] | mortality at 800 ppm [3] | mortality at 500 ppm [5] | mortality at 800 ppm [6] | mortality at 500 ppm [7] | mortality at 500 ppm [8]

CC(C)c1ccccc1N1C(=O)CS/C1=N\N=C\c1ccc2c(ccc3c2ncn3-c2ccc(C(F)(F)F)nn2)n1 [Compound C-10, (2Z)-3-(2-isopropylphenyl)-2-[(E)-[3-[6-(trifluoromethyl)pyridazin-3-yl]imidazo[4,5-f]quinolin-7-yl]methylenehydrazono]thiazolidin-4-one]
≥ 75%: mortality at 800 ppm [4] | mortality at 800 ppm [1, 11] | mortality at 500 ppm [5] | mortality at 500 ppm [9] | mortality at 800 ppm [6] | mortality at 800 ppm [10] | mortality at 500 ppm [7] | mortality at 500 ppm [8]

CC(C)c1ccccc1/N=C1\SCC(=O)N1/N=C/c1cc2ccc3c(ncn3-c3ccc(OC(F)(F)F)cc3)c2cn1 [Compound C-28, (2Z)-2-(2-isopropylphenyl)imino-3-[(E)-[3-[4-(trifluoromethoxy)phenyl]imidazo[4,5-h]isoquinolin-7-yl]methyleneamino]thiazolidin-4-one]
≥ 75%: mortality at 800 ppm [4] | mortality at 800 ppm [1, 11] | mortality at 800 ppm [3] | mortality at 500 ppm [5] | mortality at 800 ppm [6] | mortality at 800 ppm [10] | mortality at 500 ppm [7]

Cc1cccc(C)c1N1CCS/C1=N/N=C/c1ccc2c(ccc3c2ncn3-c2ccc(OC(F)(F)F)cc2)n1 [Compound C-30, (E)-3-(2,6-dimethylphenyl)-N-[(E)-[3-[4-(trifluoromethoxy)phenyl]imidazo[4,5-f]quinolin-7-yl]methyleneamino]thiazolidin-2-imine]
≥ 75%: mortality at 800 ppm [4] | mortality at 800 ppm [1, 11] | mortality at 800 ppm [2, 12] | mortality at 500 ppm [7]

CC(C)c1ccccc1N1/C(=N/N=C/c2ccc3c(ccc4c3ncn4-c3ccc(OC(F)(F)F)cc3)n2)SCC1(C)O (centres unmarked) [Compound C-9, (2Z)-3-(2-isopropylphenyl)-4-methyl-2-[(E)-[3-[4-(trifluoromethoxy)phenyl]imidazo[4,5-f]quinolin-7-yl]methylenehydrazono]thiazolidin-4-ol]
≥ 75%: mortality at 800 ppm [4] | mortality at 800 ppm [1, 11] | mortality at 800 ppm [2, 12] | mortality at 800 ppm [3] | mortality at 500 ppm [5] | mortality at 500 ppm [9] | mortality at 800 ppm [6] | mortality at 500 ppm [7] | mortality at 500 ppm [8]

CC(C)c1ccccc1/N=C1\SCC(=O)N1/N=C/c1ccc2c(ccc3c2ncn3-c2ccc(OC(F)(F)F)cc2)n1 [Compound C-8, (2Z)-2-(2-isopropylphenyl)imino-3-[(E)-[3-[4-(trifluoromethoxy)phenyl]imidazo[4,5-f]quinolin-7-yl]methyleneamino]thiazolidin-4-one]
≥ 75%: mortality at 800 ppm [4] | mortality at 800 ppm [1, 11] | mortality at 800 ppm [3] | mortality at 500 ppm [5] | mortality at 500 ppm [9] | mortality at 800 ppm [6] | mortality at 500 ppm [7] | mortality at 500 ppm [8]
